Reference: patent publication US20140045890A1, “NOVEL COMPOUNDS” (SYNGENTA PARTICIPATIONS AG, priority 2011, published 2014)

Columns and labels:
[1] = tested on: Phytophthora infestans; assay: whole plant or invertebrate; assay type: in vivo; details: in Solanum lycopersicum, foliar, read-out: inhibit fungal infestation (percent disease control compared to untreated)
[2] = tested on: Plasmopara viticola; assay: Plasmopara viticola / grape / leaf disc preventative; assay type: in vivo; details: foliar, grape vine leaf disks, inoculated 1 day after application, assessed 6-8 days after application, read-out: inhibit fungal infestation (percent disease control compared to untreated)
[3] = tested on: Blumeria qraminis f. sp. tritici (Erysiphe qraminis f. sp. tritici); assay: Blumeria graminis f. sp. tritici / wheat / leaf disc preventative (powdery mildew on wheat); assay type: in vivo; details: foliar, wheat leaf segments cv. Kanzler, inoculated 1 day after application, assessed 6-8 days after application, read-out: inhibit fungal infestation (percent disease control compared to untreated)
[4] = tested on: Pythium ultimum; assay: Pythium ultimum / liquid culture (seedling damping off); assay type: cell-based; details: Globisporangium ultimum, liquid culture in PDB, 24° C., 2-3 days after application, read-out: inhibit fungal infestation (inhibition of growth determined photometrically)

| SMILES | inhibition at 200 ppm [1] | inhibition at 200 ppm [2] | inhibition at 200 ppm [3] | inhibition at 200 ppm [4] | melting point |
| --- | --- | --- | --- | --- | --- |
| C#Cc1cnc2ccc(OC(SC)C(=O)NC(C)(C)c3cc(COC)on3)cc2c1 (stereo not shown) [Compound 52] | ≥ 80% | ≥ 80% | ≥ 80% | ≥ 80% |  |
| C#Cc1cnc2c(C)cc(OC(SC)C(=O)NC(C)(C)c3cccnc3)cc2c1 (stereo not shown) [Compound 56] |  | ≥ 80% |  | ≥ 80% |  |
| C#Cc1cnc2ccc(OC(SC)C(=O)NC(C)(C)c3cc(C(=O)OC)on3)cc2c1 (stereo not shown) [Compound 40] | ≥ 80% |  |  | ≥ 80% |  |
| C=Cc1cnc2ccc(OC(SC)C(=O)NC(C)(C)c3ccccn3)cc2c1 (stereo not shown) [Compound 133, N-[1-methyl-1-(2-pyridyl)ethyl]-2-methylsulfanyl-2-[(3-vinyl-6-quinolyl)oxy]acetamide] |  |  |  |  | 95 to 97 °C |
| CSC(Oc1cc(C)c2ncc(I)cc2c1)C(=O)NCc1ccc(Cl)nc1 (stereo not shown) [Compound 127] |  |  | ≥ 80% |  |  |
| COCc1cc(C(C)(C)NC(=O)C(Oc2ccc3ncc(I)cc3c2)SC)no1 (stereo not shown) [Compound 105] | ≥ 80% | ≥ 80% | ≥ 80% | ≥ 80% |  |
| CSc1cnc2ccc(OC(SC)C(=O)NC(C)(C)c3nocc3Br)cc2c1 (stereo not shown) [Compound 65] |  |  |  | ≥ 80% |  |
| C#Cc1cnc2ccc(OC(SC)C(=O)NC(C)(C)c3cc(C(=O)OC)sn3)cc2c1 (stereo not shown) [Compound 62, methyl 3-[1-[[2-[(3-ethynyl-6-quinolyl)oxy]-2-methylsulfanyl-acetyl]amino]-1-methyl-ethyl]isothiazole-5-carboxylate] |  | ≥ 80% | ≥ 80% | ≥ 80% |  |
| C#Cc1cnc2c(F)cc(OC(SC)C(=O)NCc3ncc(C)s3)cc2c1 (stereo not shown) [Compound 122] |  |  | ≥ 80% | ≥ 80% |  |
| C#Cc1cnc2c(F)cc(OC(SC)C(=O)NC(C)(C)c3cc(C)on3)cc2c1 (stereo not shown) [Compound 69] | ≥ 80% | ≥ 80% | ≥ 80% | ≥ 80% |  |
| C#Cc1cnc2c(C)cc(OC(SC)C(=O)NC(C)(C)c3ccncc3)cc2c1 (stereo not shown) [Compound 36] | ≥ 80% | ≥ 80% |  | ≥ 80% |  |
| CSc1cnc2ccc(OC(SC)C(=O)NCc3nc(C)cs3)cc2c1 (stereo not shown) [Compound 121] |  |  |  | ≥ 80% |  |
| C#Cc1cnc2ccc(OC(SC)C(=O)NC(C)(C)c3nscc3C(=O)OC)cc2c1 (stereo not shown) [Compound 61] |  | ≥ 80% |  | ≥ 80% |  |
| CSc1cnc2ccc(OC(SC)C(=O)NC(C)(C)c3cc(Cl)on3)cc2c1 (stereo not shown) [Compound 71] |  | ≥ 80% |  | ≥ 80% |  |
| CCc1cc(C(C)(C)NC(=O)C(Oc2ccc3ncc(SC)cc3c2)SC)no1 (stereo not shown) [Compound 103] |  | ≥ 80% |  | ≥ 80% |  |
| C#Cc1cnc2c(C)cc(OC(SC)C(=O)NC(C)(C)c3cc(C)on3)cc2c1 (stereo not shown) [Compound 67] | ≥ 80% | ≥ 80% | ≥ 80% | ≥ 80% |  |
| C#Cc1cnc2c(Cl)cc(OC(SC)C(=O)NC(C)(C)c3nocc3C)cc2c1 (stereo not shown) [Compound 76] | ≥ 80% | ≥ 80% |  | ≥ 80% |  |
| C#Cc1cnc2c(C)cc(OC(SC)C(=O)NC(C)(C)c3cc(CC)on3)cc2c1 (stereo not shown) [Compound 94] | ≥ 80% | ≥ 80% | ≥ 80% | ≥ 80% |  |
| C#Cc1cnc2ccc(OC(SC)C(=O)NC(C)(C)c3cc(C(F)(F)F)on3)cc2c1 (stereo not shown) [Compound 83] | ≥ 80% | ≥ 80% | ≥ 80% | ≥ 80% |  |
| CSC(Oc1ccc2ncc(I)cc2c1)C(=O)NC(C)(C)c1cc(C(F)(F)F)on1 (stereo not shown) [Compound 108] |  | ≥ 80% |  | ≥ 80% |  |
| C#Cc1cnc2c(Cl)cc(OC(SC)C(=O)NC(C)(C)c3cc(COC)on3)cc2c1 (stereo not shown) [Compound 96] | ≥ 80% | ≥ 80% | ≥ 80% | ≥ 80% |  |
| C#Cc1cnc2ccc(OC(OC)C(=O)NC(C)(C)c3ccccn3)cc2c1 (stereo not shown) [Compound 55] | ≥ 80% |  | ≥ 80% | ≥ 80% |  |
| C#Cc1cnc2c(C)cc(OC(SC)C(=O)NC(C)(C)c3cc(C(=O)OC)on3)cc2c1 (stereo not shown) [Compound 41] |  | ≥ 80% |  | ≥ 80% |  |
| C#Cc1cnc2c(Cl)cc(OC(SC)C(=O)NCc3nc(C)cs3)cc2c1 (stereo not shown) [Compound 120] |  | ≥ 80% | ≥ 80% | ≥ 80% |  |
| C#Cc1cnc2c(C)cc(OC(SC)C(=O)NC(C)(C)c3cc(Cl)on3)cc2c1 (stereo not shown) [Compound 72] | ≥ 80% | ≥ 80% |  | ≥ 80% |  |
| C#Cc1cnc2ccc(OC(SC)C(=O)NC3(c4ccccn4)CC3)cc2c1 (stereo not shown) [Compound 37] | ≥ 80% |  | ≥ 80% | ≥ 80% |  |
| CSC(Oc1cc(C)c2ncc(I)cc2c1)C(=O)NCc1cccnc1 (stereo not shown) [Compound 125] |  |  |  | ≥ 80% |  |
